# Source: US20100226888A1, “Ethanol Enhances the Complete Replication of Hepatitis C Virus: the Role of Acetaldehyde” (priority 2009, published 2010)
# Read-outs that look alike come from different tables or passages of the source.
# Legend:
# JFH1 HCV (genotype 2a) = assay type: cell-based, hepatitis C virus; conditions: for intracellular JFH1 HCV RNA levels: 48 hrs
# JFH1 virus = assay: HCV RNA in naive Huh7 or Huh7.5 cells inoculated with JFH1 virus-containing medium; assay type: cell-based, hepatitis C virus
# Procedure: (§1) The in vitro transcription, and transfection of HCV RNA, and Huh7 human hepatoma cell culture were performed as previously described (17). For experiments involving stable clones, cells were cultured in medium supplemented with 0.4-0.5 mg/mL G418, and G418 was removed from cell culture medium one day prior to cell treatments, which were performed as described in Results. For the in vitro infectivity assays, 2 ml of the extracellular medium from JFH1 RNA-transfected cells was used to inoculate naive Huh7 or Huh7.5 cells with 3 ml of fresh medium, as described (23, 25). Treatments were initiated 24 hours after infection and the cells were harvested after another 24 or 48 hrs.
# The total intracellular RNA was obtained from cells using Trizol (Invitrogen). To obtain extracellular HCV RNA, cell culture medium samples were first treated with RNase A (100 μg/ml) for 30 min at room temperature, then RNA was extracted using Trizol LS and glycogen as a carrier. HCV RNA was quantified by qRT-PCR as described (17, 23). For JFH1, the primer sequences were 5′ […] 3′ (nt 146 to 164; forward, SEQ ID NO.: 1), and 5′ […] 3′ (nt 277 to 295; reverse, SEQ ID NO.: 2), and the sequence of the fluorogenic probe, labeled with 6-FAM and TAMRA (Biosearch Technologies, Inc.), was 5′ […] 3′ (nt 168 to 188, SEQ ID NO.: 3). The primer and probe sequences for qRT-PCR analysis of Con1 RNA's were described previously (17). Standard curves were generated using in vitro-transcribed HCV RNA's. Intracellular HCV RNA levels were normalized by 18 S rRNA or GAPDH mRNA.
# [1] = system: SgJFH1-Luc subgenomic HCV replicon (genotype 2a); assay type: cell-based, hepatitis C virus
# Source text: (§2) The genotype 2a HCV constructs, pJFH1 (produces infectious virus particles), replicative-null pJFH1-GND, and subgenomic pSgJFH1-Luc (contains a luciferase reporter gene), are described elsewhere (23, 24). Subgenomic HCV replicons are bicistronic constructs that express only the nonstructural proteins of HCV under the control of encephalocarditis virus IRES; neomycin resistance or firefly luciferase gene is under the control of the HCV IRES (15, 22, 24). These replicons support HCV RNA replication but no virus is formed in cell culture. Huh7 cell clones (SgPC2 cells, Clone B) supporting continuous replication of subgenomic HCV replicon of genotype 1b (Con1 sequence) were also used (17, 22).
# After various treatments, SgJFH1 Luc RNA-transfected cells were lysed with 1× Reporter Lysis Buffer, and the luciferase activity was determined using Luciferase Reporter Assay Kit (Promega Corp.) (24). Luciferase activities were normalized by total protein content, determined with bicinchoninic acid (BCA) assay kit from Pierce.
# To test whether the JFH1 RNA replication was also affected by ethanol, Huh7 cells were transfected with JFH1 SgJFH1-Luc RNA and exposed the cells to ethanol for 48 hours. Then, HCV replication was monitored by measuring the firefly luciferase activity (24).
# [2] = system: Con1 subgenomic HCV replicon (genotype 1b); assay: Con1 subgenomic replicon HCV RNA in SgPC2 cells (Northern blot); assay type: cell-based, hepatitis C virus; conditions: 0.1 to 1% ethanol, 24 hrs
# Source text: as §2, §1
# (§3) Intracellular RNA extraction and northern blots were carried out, as described (16, 17). DNA probes were prepared from nucleotides (“nt.”) 4128-8273 or 358-2816 of JFH1, generated with ScaI and ApaL I, respectively, or nt. 3669 to 6016 of the Con1 subgenomic replicons. Images were quantified by densitometry, using Optiquant Cyclone 4.00 (Perkin Elmer), and data were normalized by glyceraldehyde 3-phosphate dehydrogenase (GAPDH) mRNA content.
# [3] = system: Con1 HCV subgenomic replicon; assay: Con1 subgenomic replicon HCV RNA in Clone B cells; assay type: cell-based, hepatitis C virus; conditions: 24 hrs, response compared with SgPC2 cells
# Source text: as §2, §3
# [4] = system: HCV RNA replication complex (Con1 strain); conditions: cells treated with ethanol for 5 hrs
# Procedure: (§4) In vitro replication assay was carried out according to the modified method of Ali et al., as previously described (16, 17, 26). Briefly, cytoplasmic lysates were prepared, and the replication was allowed to proceed for 1 hr at 30° C. in the presence of α-^32P-CTP and actinomycin D. Then, RNA products were analyzed on a 1% formaldehyde agarose gel, which was subsequently analyzed, using Optiquant Cyclone 4.00 (Perkin Elmer).
# (§5) JFH1-transfected cells were exposed to ethanol for 5 hrs and then, the cytoplasmic lysates, containing the HCV replication complex, were isolated. Then, the in vitro RNA replication assay was performed in the presence of α-^32P-labeled CTP and actinomycin D, as previously described (17). JFH1 GND cell lysates were used as a negative control.
# [5] = system: HCV RNA replication complex (JFH1)
# Procedure: as §4, §5
# HCV IRES = conditions: ethanol, data not shown
# Procedure: as §5
# CYP2E1 = conditions: daily 0.2% (v/v) ethanol for 48 hrs, JFH1 cells
# Source text: Cells were sonicated in Laemmli buffer, and proteins were separated on 7-20% Tris-glycine gel (Invitrogen) or 12.5% SDS-polyacrylamide gel and western blotted, using mouse monoclonal anti-NS5A (Biodesign, Inc.), goat anti-actin, and the corresponding horseradish peroxidase-conjugated secondary antibodies (Santa Cruz Laboratories) with an ECL Plus kit (Amersham Biosciences). Images were obtained and quantified, using 152000R (Kodak).
# NADH/NAD+ ratio = assay: NADH/NAD+ enzymatic NADH recycling assay; assay type: cell-based, human
# Procedure: NADH and NAD+ levels were determined by enzymatic NADH recycling assay, using the NAD+/NADH Quantification Kit from Biovision, per manufacturers recommendations with an optional filtration step that used Microcon YM-10 (Millipore). […] The data were normalized by total protein content, determined with BCA assay kit from Pierce.
# [6] = system: Huh7 human hepatoma cells; conditions: data not shown
# Procedure: NADH and NAD+ levels were determined by enzymatic NADH recycling assay, using the NAD+/NADH Quantification Kit from Biovision, per manufacturers recommendations with an optional filtration step that used Microcon YM-10 (Millipore). Total ATP content was measured using Somatic Cell ATP Assay Kit from Sigma-Aldrich. The data were normalized by total protein content, determined with BCA assay kit from Pierce.
# To examine whether ethanol increased the complete replication of HCV, positive-sense genomic JFH1 RNA was produced by in vitro transcription, using T7 RNA polymerase, and transfected into Huh7 human hepatoma cells. Then, the transfected cells were exposed to 0-1.0% (v/v; 0-172 mM) ethanol once daily with a change of medium each day for 48 hrs. Then, the cells and the cell culture medium were harvested and analyzed for intracellular and RNase A-resistant extracellular HCV RNA's by a combination of Northern blots and qRT-PCR.
# [7] = system: intracellular cholesterol; assay: Total intracellular cholesterol content in SgPC2 cells; assay type: cell-based, human; conditions: 24 h
# Procedure: FIG. 7. […] SgPC2 cells were treated for 24 h with (A and B) 0.2% ethanol, 5 μM acetaldehyde, 0.2% isopropyl alcohol, 2 mM acetone, 5 μM acetate±30 min pretreatment with (A) 5 μM lovastatin, 5 μM fluvastatin, (B) 5 μg/ml TOFA, 5 μg/ml cerulenin, or with (C) 2 mM β-mercaptopropionic acid (β-MPA). Then, HCV RNA levels were monitored by Northern blot and quantified by densitometry (n=3). D, SgPC2 cells, treated for 24 h with ethanol, acetaldehyde, acetone, and acetate±lovastatin, were monitored for cholesterol levels (n=3). Lovastatin was activated, as described, before use (29). *, indicates statistically significant difference for indicated sample sizes (p<0.05)
# intracellular GSH = assay: Intracellular GSH content in Huh7 cells; assay type: cell-based, human
# Source text: Hepatic ethanol, particularly CYP2E1-mediated, metabolism is known to generate ROS (31). […] First, to examine the effects of endogenously generated ROS, L-buthionine S,R-sulfoximine (BSO) was used. BSO depletes glutathione (GSH), a major endogenous antioxidant, by inhibiting its de novo synthesis and therefore, would amplify the effects of endogenous ROS, generated during normal cellular metabolism and in response to HCV (5). BSO decreases intracellular GSH content by approximately 80±12% in Huh7 cells (P<0.05).
compound,measurement,setting,value
CCO [ethanol],intracellular JFH1 HCV RNA levels,JFH1 HCV (genotype 2a); 0.2% (v/v) ethanol once daily,237±40 % of untreated controls
same,intracellular JFH1 HCV RNA levels,JFH1 HCV (genotype 2a); 0.5% (v/v) ethanol once daily,305±61 % of untreated controls
same,extracellular HCV RNA (virus secretion),"JFH1 HCV (genotype 2a); ethanol treatment 48 hrs, RNase A-resistant RNA in medium",significantly elevated
same,HCV replication in RIG-1-defective Huh7.5 cells,"JFH1 virus; FIG. 5, also data not shown",increase
same,HCV RNA in Huh7 cells infected with cell culture-generated JFH1 virion,JFH1 virus; ethanol treatment 48 hrs,increased
same,luciferase activity (JFH1 RNA genome replication),[1],increased
same,genotype 1b HCV RNA,[2],significant increases
same,HCV RNA in Clone B cells,[3],responded similarly
same,in vitro replication rate of Con1 strain,[4],accelerated
same,rate of HCV RNA replication in vitro,[5]; cells exposed to ethanol for 5 hrs,significantly increased
same,rate of HCV RNA replication in vitro,"[5]; cells exposed to ethanol for ½, 1, or 3 hrs, data not shown",no significant increase
same,HCV IRES activity,HCV IRES,did not increase
same,CYP2E1 expression,CYP2E1,enhanced
same,NADH/NAD+ ratio,"NADH/NAD+ ratio; SgPC2 cells, 3 h, 0.2% ethanol, 5 μM acetaldehyde, 5 μM acetate, 0.2% isopropyl alcohol, 2 mM acetone, 25 mM tert-butanol",increases
same,increase of NADH/NAD+ ratio,"NADH/NAD+ ratio; ethanol, within 3 hrs",76.2±6.1%
same,overall ATP levels,[6],not significantly perturbed
same,cytotoxicity,"[6]; ethanol concentrations used, cell morphology and cellular ATP content",did not induce any cytotoxicity
same,total intracellular cholesterol content,[7],increased
"CCCCS(=N)(=O)CCC(N)C(=O)O [BSO, L-buthionine S,R-sulfoximine]",extracellular JFH1 RNA levels,"JFH1 HCV (genotype 2a); BSO, 24 hrs",significantly decreased
same,intracellular JFH1 RNA levels,"JFH1 HCV (genotype 2a); BSO, 24 hrs",significantly decreased
same,subgenomic JFH1 RNA replication,"[1]; BSO alone or with 0.25 mU/mL GO + glucose, 24 hr",suppressed
same,decrease of intracellular GSH content,intracellular GSH,approximately 80±12%
